Laboratory results as given in the NIST ThermoML archive (doi:10.1021/acs.jced.5b00355).
Numbers after ± are expanded uncertainties.

Test: cn = amount concentration of the nth substance listed, in mol/dm3
Details: 298.2 K, 101 kPa, Liquid, Pycnometric method

Structure (SMILES): Nc1nnc(-c2cccc(Cl)c2Cl)c(N)n1 [lamotrigine] + CC(C)=O
- mass density (c1 = 0.0167): 852.8 ± 6.9 kg/m3

Structure (SMILES): Nc1nnc(-c2cccc(Cl)c2Cl)c(N)n1 [lamotrigine] + CCCO
- mass density (c1 = 0.0245): 893.8 ± 7.2 kg/m3

Structure (SMILES): Nc1nnc(-c2cccc(Cl)c2Cl)c(N)n1 [lamotrigine] + CCO
- mass density (c1 = 0.0134): 851.7 ± 6.8 kg/m3

Structure (SMILES): Nc1nnc(-c2cccc(Cl)c2Cl)c(N)n1 [lamotrigine] + CCOC(C)=O
- mass density (c1 = 0.0106): 995.4 ± 8 kg/m3

Structure (SMILES): Nc1nnc(-c2cccc(Cl)c2Cl)c(N)n1 [lamotrigine] + CO
- mass density (c1 = 0.0199): 834.7 ± 6.7 kg/m3
